Patent US12325744B2, “Methods for reducing post-operative cognitive dysfunction (POCD)” (The Kennedy Trust for Rheumatology Research, priority 2010, dated 2025)
“Also recorded” adds a separate entry of the source.

Tests used:
microglia [1] = test: Hippocampal microglia anti-CD11b immunohistochemistry grading (0-3) after tibial surgery; format: in vivo; settings: wild type mice, 1 day after surgery
Source text: Immunohistochemistry. Fixed brains were collected for immunohistochemical DAB staining for CD11 b and scored as previously described^21. (For further details please refer to supplemental methods).
Under terminal anesthesia with pentobarbital, mice were euthanized and perfused transcardially with ice-cold heparinized 0.1M phosphate buffer solution (PBS) followed by 4% paraformaldehyde in 0.1M PBS at pH 7.4 (VWR International, Lutterworth, Leicester, UK). The brains were harvested and post-fixed in 4% paraformaldehyde in 0.1M PBS at 4° C. and cryoprotected in 0.1M PBS solutions containing 15% sucrose for 24 hours (VWR International, Lutterworth, Leicester, UK) and then 30% sucrose for a further 48 hours. […]
Immunohistochemistry: Fixed brains were collected for immunohistochemical DAB staining for microglia activation using CD11 b and scored as previously described (13).
Methods: Adult C56BL/6J male mice were randomly assigned into groups that were: 1) untreated (naïve) animals; 2) tibial fracture under GA and analgesia; 3) 24 h following tibial surgery, i.p. injection of LPS (1 mg/kg) 4) LPS injection only. Separate cohorts of mice per group were assessed for inflammatory markers (plasma cytokines and microglial activation), or hippocampal-dependent memory using trace fear conditioning (TFC).

IL-1β = test: Plasma IL-1β by ELISA after LPS injection; format: in vivo, mice; settings: LPS 1 mg/kg i.p., IL-1Ra 100 mg/kg s.c. immediately before LPS
Procedure: (§1) Treatment. LPS derived from Escherichia Coli endotoxin ([…], InvivoGen, USA, 1 mg/kg) was dissolved in normal saline and injected intraperitoneally. IL-1Ra (Amgen, Anakinra 100 mg/kg, Nederlands) was given subcutaneously immediately before LPS administration. Dose response curve from LPS or IL-1Ra was obtained from our pilot studies to provoke or to suppress moderate degree of microglia activation respectively. Control animals were injected with equivalent volumes (0.1 ml) of saline. Mice from each treatment group were randomly assigned for assessment of either cytokine response or cognitive behavior, in order to obviate possible confounding effects of behavioral testing on inflammatory markers.
(§2) Plasma cytokine measurement. Blood was sampled transcardially after thoracotomy under terminal anesthesia 30 minutes, 2, 6, 12 hours and 1, 3, 7 days after experiments in the different cohorts and centrifuged at 3,600 rpm for 7 minutes at 4° C. Blood samples taken from animals without any interventions severed as controls. Plasma samples were stored at −20° C. for further analysis. Plasma cytokine and HMGB-1 were measured using commercially available ELISA kits from Biosource, CA and Shino-test Corporation, Japan, respectively. The sensitivities of the assays were <3 pg/ml for TNFα, <7 pg/ml for IL-1β, <3 pg/ml for IL-6 and 1 ng/ml for HMGB-1.

IL-6 = test: Plasma IL-6 by ELISA after LPS injection; format: in vivo, mice; settings: LPS 1 mg/kg i.p., IL-1Ra 100 mg/kg s.c. immediately before LPS
Procedure: as §1, §2

HMGB-1 = test: Plasma HMGB-1 by ELISA after LPS injection; format: in vivo, mice; settings: LPS 1 mg/kg i.p.; IL-1Ra 100 mg/kg s.c. immediately before LPS
Procedure: as §1, §2

microglia [2] = test: Hippocampal microglia anti-CD11b immunohistochemistry grading after LPS injection; format: in vivo, mice; settings: LPS 1 mg/kg i.p.; IL-1Ra pre-treatment; days 1 and 3
Procedure: as §1
Immunohistochemistry (IHC). Mice were euthanized and perfused transcardially with ice-cold heparinized 0.1M phosphate buffer solution (PBS) followed by 4% paraformaldehyde in 0.1M PBS at pH 7.4 (VWR International, UK). The brains were harvested and post-fixed in 4% paraformaldehyde in 0.1M PBS at 4° C. and cryoprotected in 0.1M PBS solutions containing 15% sucrose for 24 hours (VWR International, UK) and then 30% sucrose for a further 48 hours. Brain tissue was freeze-mounted in OCT embedding medium (VWR International, UK). The 25 μm thick coronal sections of the hippocampus were cut sequentially in groups of 6 and mounted on Superfrost® plus slides (Menzel-Glaser, Germany). […]

C57BL/6 male mice = test: Observation of sickness behavior after LPS injection; format: in vivo; settings: LPS 1 mg/kg i.p.; IL-1Ra pre-treatment
Procedure: Animals. All the experiments were conducted under the UK Home Office approved license. Wild type C57BL/6 male mice, 12-14 weeks old, weighting 25-30 g were used and housed in groups of five in a 12-h-12-h light dark cycle, with controlled temperature and humidity with free access to food and water. IL-1R^−/− (kindly provided by Nancy Rothwell, University of Manchester) were bred in-house on a C57BL/6 background and age-matched to wild type counterparts. Seven days of acclimatization were allowed before starting any experiment. All the animals were checked on a daily basis and evidence of poor grooming, huddling, piloerection, weight loss, back arching and abnormal activity, were excluded in the experiments.
as §1, with “Mice from each treatment group were randomly assigned for assessment of either cytokine response or cognitive behavior, in order to obviate possible confounding effects of behavioral testing on inflammatory markers.” left out

IL-1Ra: IL-1 receptor antagonist (Amgen, Anakinra)
Reactive microgliosis in hippocampus (CD11b grading) after surgery, effect of treatment (microglia [1]): surgery did not increase hippocampal microgliosis; also recorded: surgery did not activate microglia if IL-1Ra was given pre-operatively
Plasma IL-1β at 6 hours after LPS with IL-1Ra (IL-1β; 6 hours): 32.7 ± 5.45 pg/mL
Plasma IL-1β at 24 hours after LPS with IL-1Ra (IL-1β; 24 hours): 6.2 ± 1.03 pg/mL
Plasma IL-6 at 6 hours after LPS with IL-1Ra (IL-6; 6 hours): 91.02 ± 15.17 pg/mL
Plasma IL-6 at 24 hours after LPS with IL-1Ra (IL-6; 24 hours): 14.05 ± 2.34 pg/mL
Plasma HMGB-1 after LPS, effect of IL-1Ra (HMGB-1): had no effects on HMGB-1 release in plasma; also recorded: had no effects on HMGB-1 levels
Reactive microglia in hippocampus after LPS, effect of IL-1Ra (microglia [2]): Reduction in the number of reactive microglia was observed; also recorded: attenuated by IL-1Ra treatment; also recorded: effectively reduced the number of reactive microglia at days 1 and 3
Symptoms of sickness behavior after LPS, effect of IL-1Ra (C57BL/6 male mice): abolished the main symptoms of sickness behavior
